{"source": "patent US5130327A", "about": "“Indole derivatives” (Consejo Superior de Investigaciones Cientificas, priority 1989, dated 1992)", "key": {"[1]": {"system": "rat cerebral MAO A", "assay": "Ex vivo inhibition of rat cerebral MAO A after single dosing", "format": "in vivo", "protocol": "2. \"Ex vivo inhibition\" of rat cerebral MAO A and B after single dosing.\nThis gives the degree of inhibition in vivo of both forms of the enzyme and variation of this inhibition with time after treatment with a single dose. […] Animals were sacrificed by decapitation 24 h. and 7 days after treatment and brains were removed and homogenized. Enzymatic activities determined in treated animals, were compared with the activities in control animals (100%)."}, "[2]": {"system": "brain, duodenum and liver MAO B", "assay": "In vivo inhibition of MAO B of different tissues after chronic treatment", "parameters": "species or system rat", "protocol": "(§1) 4. \"In vivo\" inhibition of MAO A and B of different tissues after chronic treatment.\n(§2) In order to evaluate the effect of compounds in a chronic treatment, the inhibitory activity on brain, duodenum and liver MAO A and B has been studied \"in vivo\". Wistar male rats were treated at two dose levels, 0.1 and 0.25 mg/kg i.p. for 15 and 21 days. Control rats received similar amounts of saline solution."}, "[3]": {"assay": "Secondary effects on the cardiovascular system", "conditions": "in vivo", "protocol": "The secondary effects were studied mainly on the cardiovascular system, and the effects on the arterial pressure, heart rate and rhythm, P-R interval and isolated organ (rabbit aortic rings and isolated atria), were evaluated both after acute and chronic treatments. In the same way, the \"cheese effect\" was studied by means of the tyramine potentiation."}, "[4]": {"assay": "Antagonism of tetrabenazine effects (ptosis and catalepsy)", "format": "in vivo", "conditions": "ptosis and catalepsy at 60 and 120 minutes after administration; read-out: ED50, antagonism of effects induced by tetrabenazine", "text": "(§3) The action mechanism was studied in acute and chronic treatments on the interaction response with clonidine, salbutamol (Richard, J. Intern. J. Neuroscience, 9:17-19, 1979) and tetrabenazine (Pletscher, A.: An. N.Y. Aca. Sci. 80:1039-1045, 1959), and the response to the potentiation with L-dopa, L-tryptophan, tryptamine (Jalfre, M. et al., Arch. Int. Pharmacodyn, 159:194-221, 1982) and β-phenylethylamine (Ortmann, et al, Psychopharmacol. 84:22-27, 1984)."}, "[5]": {"target": "T1, Bovine Brain MAO A (Bos taurus, UniProt P21398)", "T1 construct": "in vitro activity of MAO from bovine brain mitochondria; from tissue; host or cells: bovine brain mitochondria", "T1 sequence (P21398 1-527)": "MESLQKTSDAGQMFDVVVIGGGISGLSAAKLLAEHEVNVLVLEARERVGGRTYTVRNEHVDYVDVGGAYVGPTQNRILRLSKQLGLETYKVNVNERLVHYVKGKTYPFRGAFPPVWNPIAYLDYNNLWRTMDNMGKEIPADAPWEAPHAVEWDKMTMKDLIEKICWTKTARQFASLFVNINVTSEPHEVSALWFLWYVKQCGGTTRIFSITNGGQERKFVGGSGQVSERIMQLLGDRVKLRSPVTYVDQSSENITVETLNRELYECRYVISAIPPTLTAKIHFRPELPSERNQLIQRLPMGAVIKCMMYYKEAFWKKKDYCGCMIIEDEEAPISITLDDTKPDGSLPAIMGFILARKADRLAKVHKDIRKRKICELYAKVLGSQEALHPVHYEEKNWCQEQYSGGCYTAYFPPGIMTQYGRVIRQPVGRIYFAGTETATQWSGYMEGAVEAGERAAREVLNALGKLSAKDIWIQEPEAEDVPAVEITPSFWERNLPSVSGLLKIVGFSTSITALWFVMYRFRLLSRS", "assay": "In vitro inhibition of MAO from bovine brain mitochondria, tyramine as substrate (form A)", "format": "biochemical", "conditions": "pI50 = -log [I50], molar", "text": "The following table illustrates the structure of particular compounds of the invention (1). It also gives specific pI50 values where pI50 =-log [I50 ] where [I50 ] is the molar concentration of test compound which inhibits 50% of the in vitro activity of MAO from bovine brain mitochondria using tyramine as substrate."}, "[6]": {"system": "5-HT receptors", "assay": "Effects of chronic treatment on 5-HT2 receptors", "format": "in vivo", "conditions": "chronic administration in the rat", "protocol": "(§4) Effects of chronic treatment on α2 -, β- and 5-HT2 receptors. The test compounds, at a dose of 10 mg/kg/day i.p., were administered for 21 days to Wistar male rats (250±2.4 g). After treatment the animals were killed, brains were dissected and cortices were scraped from the dorsal surface of the […]. ^3 H UK 14304, ^3 H Dihydroalprenalol and ^3 H Ketanserin were used as ligands in the binding studies."}, "[7]": {"assay": "Interaction with clonidine-induced hypoactivity", "format": "in vivo", "text": "as §3"}, "[8]": {"system": "cerebral β-adrenergic receptors", "assay": "Effects of chronic treatment on β receptors", "format": "in vivo", "conditions": "chronic administration in the rat", "protocol": "as §4"}, "[9]": {"system": "reuptake of dopamine", "assay": "Reuptake of dopamine in vitro, crude synaptosomal preparation", "format": "biochemical, rat", "protocol": "Influence on the reuptake of monoamines \"in vitro\" was also studied. The effect of the compounds on the reuptake of 5-HT noradrenaline and dopamine was studied using Wistar male rats (350±2.5 g). They were kept under controlled light and temperature conditions and fed \"ad libitum\" until killed. The animals were killed by decapitation and brains were frozen and stored at -20° C. prior to analysis. Brains were dissected on an ice-filled petri dish. The cortices for 5-HT and noradrenaline assay and striatum (including caudate nucleus, putamen and globus pallidus) for dopamine assay were immediately weighed and homogenized. […] All drugs used in the study were dissolved in the incubation medium in a concentration range 10^-4 to 10^-8 M and were preincubated with the crude synaptosomal preparation obtained from the treated brains, for 5 min. at 37° C. or 0° C. before the addition of the labelled substrate."}, "[10]": {"system": "brain, duodenum and liver MAO A", "assay": "In vivo inhibition of MAO A of different tissues after chronic treatment", "parameters": "species or system rat", "conditions": "cerebral vs intestinal or hepatic", "protocol": "as §1, §2"}, "[11]": {"assay": "Potentiation of 5-HT", "format": "in vivo"}}}
{"smiles": "C#CCN(C)Cc1cc2cc(OC)ccc2n1C", "note": "[(l), N-methyl-N-propargyl-2-(1-methyl-5-methoxy-indolyl)methylamine]", "values": [{"measurement": "Persistence of MAO A inhibitory effect", "setting": "[1]; dose increased (5 mg/kg)", "result": "observed even after 7 days"}, {"measurement": "Onset of MAO A inhibitory effect", "setting": "[1]; single dose (1 mg/kg)", "result": "reached soon after the administration of a single dose"}, {"measurement": "Activity on hepatic MAO B", "setting": "[2]; hepatic", "result": "very low activity"}, {"measurement": "Effect on intestinal MAO B", "setting": "[2]; intestinal", "result": "without any effect"}, {"measurement": "Cardiovascular effects", "setting": "[3]", "result": "hypotensive and negative chronotrope"}, {"measurement": "ED50", "setting": "[4]", "result": "< 6", "unit": "mg/kg"}, {"measurement": "IC50", "setting": "[5]", "result": 8.91, "unit": "nM"}, {"measurement": "Modifications on 5-HT receptors", "setting": "[6]", "result": "not statistically significant"}, {"measurement": "Hypoactivity by clonidine, acute treatment", "setting": "[7]; acute treatment", "result": "not modifying it"}, {"measurement": "Hypoactivity by clonidine, chronic treatment", "setting": "[7]; chronic treatment (5 days)", "result": "antagonized"}, {"measurement": "Number or affinity of cerebral β-adrenergic receptors", "setting": "[8]", "result": "does not modify"}, {"measurement": "Inhibition of the reuptake of dopamine", "setting": "[9]", "result": "very weak inhibitor"}, {"measurement": "Potency as inhibitor of dopamine reuptake relative to amitryptiline", "setting": "[9]", "result": "similar"}, {"measurement": "Potency as inhibitor of dopamine reuptake relative to imipramine", "setting": "[9]", "result": "ten fold"}, {"measurement": "MAO A inhibitory effect, comparison of tissues", "setting": "[10]", "result": "higher on cerebral MAO A than on intestinal or hepatic MAO A"}, {"measurement": "ED50", "setting": "[11]", "result": 0.34, "unit": "mg/kg"}]}
